≈ marks a conversion by molar mass, not a printed value. Non-standard residues stand in square brackets, D forms with d. Residues, ends and D or L forms follow the SMILES beside them. *: point of attachment. 1Nal = N[C@@H](Cc1cccc2ccccc12)C(=O)O; Palmitoyl = CCCCCCCCCCCCCCCC(=O)*; Lauroyl = CCCCCCCCCCCC(=O)*; Octanoyl = CCCCCCCC(=O)*
What was measured:
Format in all cases: cell-based
[1] = test system: Staphylococcus aureus ATCC 29213; experiment: MIC, NCCLS M7-A6 broth microdilution, cation-adjusted Mueller Hinton broth (Table 9, no superscript); conditions: ATCC 29213
Outline: (§1)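 Values come from a broth microdilution assay run in cation-adjusted Mueller Hinton broth with an inoculum of 5×10^5 to 1×10^6 CFU/milliliter, incubated overnight at 37° C and read as absence of visible turbidity.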

[2] = test system: Escherichia coli ATCC 25922; experiment: MIC, NCCLS M7-A6 broth microdilution (Table 9, no superscript); conditions: ATCC 25922
Outline: as §1

[3] = test system: Pseudomonas aeruginosa ATCC 27853; experiment: as above; conditions: ATCC 27853
Outline: as §1

Salmonella dublin (Lane) = experiment: as above
Outline: as §1

[4] = test system: Staphylococcus epidermidis ATCC 12228; experiment: as above; conditions: ATCC 12228
Outline: as §1

Row | Structure (SMILES) | MIC S. aureus [1] | MIC E. coli [2] | MIC P. aeruginosa [3] | MIC S. dublin (Salmonella dublin (Lane)) | MIC S. epidermidis [4]
1 | CCCCCCCCCCCC(=O)N[C@H](CCCNC(=N)N)C(=O)N[C@H](CO)C(=O)N[C@H](CCCNC(=N)N)C(=O)N[C@H](CO)C(=O)N[C@H](CCCNC(=N)N)C(=O)N[C@H](CC(=O)O)C(=O)N[C@@H](C(=O)N[C@H](C)C(=O)N[C@H](CCCNC(=N)N)C(=O)N[C@H](CC(N)=O)C(=O)N[C@H](Cc1ccccc1)C(=O)N[C@H](CCSC)C(=O)N[C@H](CCCNC(=N)N)C(N)=O)C(C)C [Peptide 232, Lauryl-rsrsrdvarnfmr-NH2] (Lauroyl-[dR][dS][dR][dS][dR][dD][dV][dA][dR][dN][dF][dM][dR]-NH2) | >64 µg/mL | >64 µg/mL | >64 µg/mL | >64 µg/mL | 16 µg/mL (≈ 8.73 µM)
2 | CCCCCCCCCCCC(=O)N[C@H](CCCNC(=N)N)C(=O)N[C@H](Cc1c[nH]c2ccccc12)C(=O)N[C@H](CCCNC(=N)N)C(=O)N[C@H](CC(=O)O)C(=O)N[C@H](CC(C)C)C(=O)N[C@H](C)C(=O)N[C@H](CCCNC(=N)N)C(N)=O [Peptide 244, Lauryl-rwrdlar-NH2] (Lauroyl-[dR][dW][dR][dD][dL][dA][dR]-NH2) | 32 µg/mL (≈ 27.7 µM) | 64 µg/mL (≈ 55.5 µM) | >64 µg/mL | >64 µg/mL | 64 µg/mL (≈ 55.5 µM)
3 | CCCCCCCCCCCC(=O)N[C@@H](CCCNC(=N)N)C(=O)N[C@@H](CO)C(=O)N[C@@H](CCCNC(=N)N)C(=O)N[C@@H](Cc1c[nH]c2ccccc12)C(=O)N[C@@H](CCCNC(=N)N)C(=O)N[C@@H](CC(=O)O)C(=O)N[C@@H](Cc1cccc2ccccc12)C(=O)N[C@@H](C)C(=O)N[C@@H](CCCNC(=N)N)C(=O)N[C@@H](CC(N)=O)C(=O)N[C@@H](Cc1cccc2ccccc12)C(=O)N[C@@H](CCSC)C(=O)N[C@@H](CCCNC(=N)N)C(N)=O [Peptide 156, Lauryl-RSRWRDZARNZMR-NH2 Z = 1-naphthylalanine] (Lauroyl-RSRWRD[1Nal]ARN[1Nal]MR-NH2) | 32 µg/mL (≈ 15.4 µM) | 64 µg/mL (≈ 30.8 µM) | >64 µg/mL | 8 µg/mL (≈ 3.85 µM) | 16 µg/mL (≈ 7.69 µM)
4 | CCCCCCCCCCCC(=O)N[C@@H](CCCNC(=N)N)C(=O)N[C@@H](CO)C(=O)N[C@@H](CCCNC(=N)N)C(=O)N[C@@H](Cc1cccc2ccccc12)C(=O)N[C@@H](CCCNC(=N)N)C(=O)N[C@@H](CC(=O)O)C(=O)N[C@@H](Cc1cccc2ccccc12)C(=O)N[C@@H](C)C(=O)N[C@@H](CCCNC(=N)N)C(=O)N[C@@H](CC(N)=O)C(=O)N[C@@H](Cc1ccccc1)C(=O)N[C@@H](CCSC)C(=O)N[C@@H](CCCNC(=N)N)C(N)=O [Peptide 153, Lauryl-RSRZRDZARNFMR-NH2 Z = 1-naphthylalanine] (Lauroyl-RSR[1Nal]RD[1Nal]ARNFMR-NH2) | 8 µg/mL (≈ 3.92 µM) | 32 µg/mL (≈ 15.7 µM) | 64 µg/mL (≈ 31.4 µM) | 64 µg/mL (≈ 31.4 µM) | 8 µg/mL (≈ 3.92 µM)
5 | CCCCCCCCCCCC(=O)N[C@@H](CCCNC(=N)N)C(=O)N[C@@H](CO)C(=O)N[C@@H](CCCNC(=N)N)C(=O)N[C@@H](Cc1cccc2ccccc12)C(=O)N[C@@H](CCCNC(=N)N)C(=O)N[C@@H](CC(=O)O)C(=O)N[C@@H](Cc1cccc2ccccc12)C(=O)N[C@@H](C)C(=O)N[C@@H](CCCNC(=N)N)C(=O)N[C@@H](CC(N)=O)C(=O)N[C@@H](Cc1cccc2ccccc12)C(=O)N[C@@H](CCSC)C(=O)N[C@@H](CCCNC(=N)N)C(N)=O [Peptide 155, Lauryl-RSRZRDZARNZMR-NH2 Z = 1-naphthylalanine] (Lauroyl-RSR[1Nal]RD[1Nal]ARN[1Nal]MR-NH2) | 64 µg/mL (≈ 30.6 µM) | >64 µg/mL | >64 µg/mL | 16 µg/mL (≈ 7.65 µM) | 16 µg/mL (≈ 7.65 µM)

Results, then the compound that gave them:

Row | MIC S. aureus [1] | MIC E. coli [2] | MIC P. aeruginosa [3] | MIC S. dublin (Salmonella dublin (Lane)) | MIC S. epidermidis [4] | Structure (SMILES)
6 | 32 µg/mL (≈ 16.1 µM) | 32 µg/mL (≈ 16.1 µM) | 64 µg/mL (≈ 32.2 µM) | 64 µg/mL (≈ 32.2 µM) | 8 µg/mL (≈ 4.03 µM) | CCCCCCCC(=O)NCCCC[C@H](NC(=O)[C@H](CCCNC(=N)N)NC(=O)[C@H](CC(C)C)NC(=O)[C@H](Cc1ccccc1)NC(=O)[C@H](CC(N)=O)NC(=O)[C@H](CCCNC(=N)N)NC(=O)[C@H](C)NC(=O)[C@@H](NC(=O)[C@H](CC(=O)O)NC(=O)[C@H](CCCNC(=N)N)NC(=O)[C@H](Cc1c[nH]c2ccccc12)NC(=O)[C@H](CCCNC(=N)N)NC(=O)[C@H](CO)NC(=O)[C@@H](N)CCCNC(=N)N)C(C)C)C(N)=O [Peptide 179, H2N-RSRWRDVARNFLRK(Octanyl)-NH2] (H-RSRWRDVARNFLRK(Octanoyl)-NH2)
7 | 32 µg/mL (≈ 17.3 µM) | >64 µg/mL | 32 µg/mL (≈ 17.3 µM) | >64 µg/mL | 4 µg/mL (≈ 2.17 µM) | CCCCCCCCCCCC(=O)N[C@H](CCCNC(=N)N)C(=O)N[C@H](CO)C(=O)N[C@H](CCCNC(=N)N)C(=O)N[C@H](Cc1c[nH]c2ccccc12)C(=O)N[C@H](CCCNC(=N)N)C(=O)N[C@H](CC(=O)O)C(=O)N[C@@H](C(=O)N[C@H](C)C(=O)N[C@H](CCCNC(=N)N)C(=O)N[C@H](CC(N)=O)C(=O)N[C@H](Cc1ccccc1)C(=O)N[C@H](CCSC)C(=O)N[C@H](C)C(N)=O)C(C)C [Peptide 231, Lauryl-rsrwrdvarnfma-NH2] (Lauroyl-[dR][dS][dR][dW][dR][dD][dV][dA][dR][dN][dF][dM][dA]-NH2)
8 | 64 µg/mL (≈ 34.2 µM) | >64 µg/mL | >64 µg/mL | 64 µg/mL (≈ 34.2 µM) | 16 µg/mL (≈ 8.55 µM) | CCCCCCCCCCCC(=O)N[C@H](CCCNC(=N)N)C(=O)N[C@H](CO)C(=O)N[C@H](CCCNC(=N)N)C(=O)N[C@H](Cc1c[nH]c2ccccc12)C(=O)N[C@H](CCCNC(=N)N)C(=O)N[C@H](CC(=O)O)C(=O)N[C@@H](C(=O)N[C@H](C)C(=O)N[C@H](CCCNC(=N)N)C(=O)N[C@H](CC(N)=O)C(=O)N[C@H](CO)C(=O)N[C@H](CCSC)C(=O)N[C@H](CCCNC(=N)N)C(N)=O)C(C)C [Peptide 234, Lauryl-rsrwrdvarnsmr-NH2] (Lauroyl-[dR][dS][dR][dW][dR][dD][dV][dA][dR][dN][dS][dM][dR]-NH2)
9 | 16 µg/mL (≈ 8.48 µM) | 16 µg/mL (≈ 8.48 µM) | 64 µg/mL (≈ 33.9 µM) | 32 µg/mL (≈ 17 µM) | 8 µg/mL (≈ 4.24 µM) | CCCCCCCCCCCC(=O)N[C@H](CCCNC(=N)N)C(=O)N[C@H](CO)C(=O)N[C@H](CCCNC(=N)N)C(=O)N[C@H](Cc1c[nH]c2ccccc12)C(=O)N[C@H](CCCNC(=N)N)C(=O)N[C@H](CC(=O)O)C(=O)N[C@@H](C(=O)N[C@H](C)C(=O)N[C@H](CCCNC(=N)N)C(=O)N[C@H](CC(N)=O)C(=O)N[C@H](Cc1ccccc1)C(=O)N[C@H](CO)C(=O)N[C@H](CCCNC(=N)N)C(N)=O)C(C)C [Peptide 235, Lauryl-rsrwrdvarnfsr-NH2] (Lauroyl-[dR][dS][dR][dW][dR][dD][dV][dA][dR][dN][dF][dS][dR]-NH2)
10 | 32 µg/mL (≈ 16.2 µM) | >64 µg/mL | 64 µg/mL (≈ 32.5 µM) | >64 µg/mL | 4 µg/mL (≈ 2.03 µM) | CCCCCCCCCCCCCCCC(=O)N[C@H](CCCNC(=N)N)C(=O)N[C@H](CO)C(=O)N[C@H](CCCNC(=N)N)C(=O)N[C@H](Cc1c[nH]c2ccccc12)C(=O)N[C@H](CCCNC(=N)N)C(=O)N[C@H](CC(=O)O)C(=O)N[C@@H](C(=O)N[C@H](C)C(=O)N[C@H](CCCNC(=N)N)C(=O)N[C@H](CC(N)=O)C(=O)N[C@H](Cc1ccccc1)C(=O)N[C@H](CC(C)C)C(=O)N[C@H](CCCNC(=N)N)C(N)=O)C(C)C [Peptide 254, Palmityl-rsrwrdvarnflr-NH2] (Palmitoyl-[dR][dS][dR][dW][dR][dD][dV][dA][dR][dN][dF][dL][dR]-NH2)
11 | 32 µg/mL (≈ 15.6 µM) | 64 µg/mL (≈ 31.1 µM) | >64 µg/mL | 8 µg/mL (≈ 3.89 µM) | 4 µg/mL (≈ 1.94 µM) | CCCCCCCCCCCC(=O)N[C@@H](CCCNC(=N)N)C(=O)N[C@@H](CO)C(=O)N[C@@H](CCCNC(=N)N)C(=O)N[C@@H](Cc1c[nH]c2ccccc12)C(=O)N[C@@H](CCCNC(=N)N)C(=O)N[C@@H](CC(=O)O)C(=O)N[C@H](C(=O)N[C@@H](Cc1cccc2ccccc12)C(=O)N[C@@H](CCCNC(=N)N)C(=O)N[C@@H](CC(N)=O)C(=O)N[C@@H](Cc1ccccc1)C(=O)N[C@@H](CCSC)C(=O)N[C@@H](CCCNC(=N)N)C(N)=O)C(C)C [Peptide 151, Lauryl-RSRWRDVZRNFMR-NH2 Z = 1-naphthylalanine] (Lauroyl-RSRWRDV[1Nal]RNFMR-NH2)

Source: patent publication US20050282755A1, “Compositions having antimicrobial activity and uses thereof” (priority 2004, published 2005)
